Assay results as given in patent publication US12226405B2, “Compounds and compositions for inhibiting the activity of HIF2-alpha and their methods of use” (Novartis AG, priority 2020, dated 2025).

System: HIF2α-regulated expression of the endogenous target gene hEGLN3 in 786-O cells
Assay: Cellular iScript assay for HIF2α (quantitative RT-PCR of hEGLN3)
Type: cell-based, human
Conditions: Homo sapiens, 786-0, 48 hours incubation
Method in brief: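 786-O cells were exposed to eleven 2-fold compound dilutions for 48 h at 37° C. Lysates underwent one-step TaqMan qRT-PCR for hEGLN3 with beta-actin as reference; 2^(−ΔΔCt) versus DMSO, as % of control, was fit with a four-parameter model to give IC50.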

Compound: FC(F)OC1=CC(C(F)(F)F)=CN2C[C@@]3(CCC(F)(F)c4c3ccnc4Cl)N=C12 [Example 31, (S)-1′-chloro-8-(difluoromethoxy)-8′,8′-difluoro-6-(trifluoromethyl)-7′,8′-dihydro-3H,6′H-spiro[imidazo[1,2-a]pyridine-2,5′-isoquinoline]]
- IC50: 37 nM

Compound: FC(F)OC1=CC(C(F)(F)F)=CN2C[C@@]3(CCOc4cc(C(F)(F)F)ccc43)N=C12 [Example 44, (S)-8′-(difluoromethoxy)-6′,7-bis(trifluoromethyl)-3′H-spiro[chroman-4,2′-imidazo[1,2-a]pyridine]]
- IC50: 65 nM
